The NIST ThermoML archive (doi:10.1016/j.fluid.2011.12.008)
± gives the expanded uncertainty stated by the source.

Details: 298.15 K; 101.33 kPa; Liquid; Vibrating tube method

Going from `CCCCCC[n+]1ccn(C)c1.O=S(=O)([N-]S(=O)(=O)C(F)(F)F)C(F)(F)F` to `CCCCCC[N+]1(C)CCCC1.O=S(=O)([N-]S(=O)(=O)C(F)(F)F)C(F)(F)F`, the mass density falls from 1371.6 ± 0.7 kg/m3 to 1336 ± 1.6 kg/m3.

Going from `CCC[N+](C)(C)CC.O=S(=O)([N-]S(=O)(=O)C(F)(F)F)C(F)(F)F` to `CCCC[N+]1(C)CCCC1.O=S(=O)([N-]S(=O)(=O)C(F)(F)F)C(F)(F)F`, the mass density falls from 1403.5 ± 0.6 kg/m3 to 1394.3 ± 0.6 kg/m3.
